The values that follow come from patent US11262349B2, “Multiplexed immune cell assays on a micropillar/microwell chip platform” (Cleveland State University, priority 2017, dated 2022).

One assay concerns CD40 on RAW 264.7 cells. In words: Surface biomarker expression (CD40) in immune cells on micropillar/microwell chip. The class given is cell-based, mouse. The note with it: 3D alginate/Matrigel, glycopolymers at 1250 μg/mL, LPS at 10 μg/mL, 48 hours, vs growth medium control (FIG. 15A). Here is the method: (§1) FIGS. 8, 14, and 15 are discussed in Example 5.
(§2) The micropillars of a 384-pillar micropillar chip were coated with 0.01% PMA-OD. Then 16.6 mM BaCl2/0.0033% PLL were printed onto the micropillars using a […].
(§3) An immune-cell suspension was prepared using 0.75% alginate and 0.5 mg/mL Matrigel and then printed onto the coated micropillars.
(§4) Growth media was then printed into the microwells on a microwell chip using a […].
(§5) The micropillar chip was then sandwiched with the microwell chip for 30 minutes and incubated for 24 hours with fresh growth media.
(§6) Next, various glycopolymers at 1250 μg/mL (polyacrylamide, N-glucosyl polymer, N-mannosyl polymer, N-lactosyl polymer, N-α2,3-sialolactosyl polymer, and N-α2,6-sialolactosyl polymer) and LPS at 10 μg/mL [701] were printed into the microwells.
(§7) The micropillar chip was then sandwiched with the microwell plate containing glycopolymers and LPS [701] for 48 hours. The micropillar chip was then rinsed with TBS [801] for 10 minutes, then incubated with ice-cold methanol and acetone (1:1 ratio) for 10 minutes at room temperature. The micropillar chip was then rinsed with TBS twice for 5 minutes and incubated with blocking buffer (SuperBlock) for 1 hour at room temperature. […]

The next assay has as its system CD80 on RAW 264.7 cells. In words: Surface biomarker expression (CD80) in immune cells on micropillar/microwell chip. The class given is cell-based, mouse. As to conditions: 3D alginate/Matrigel, glycopolymers at 1250 μg/mL, LPS at 10 μg/mL, 48 hours, vs growth medium control (FIG. 15B). The protocol:
as §1, §2, §3, §4, §5, §6, §7

The test system of assay [1] is Class II MHC on RAW 264.7 cells. In words: Surface biomarker expression (class II MHC) in immune cells on micropillar/microwell chip. The class given is cell-based, mouse. As to conditions: 3D alginate/Matrigel, glycopolymers at 1250 μg/mL, LPS at 10 μg/mL, 48 hours, vs growth medium control (FIG. 15D). The protocol:
as §1, §2, §3, §4, §5, §6, §7

The subject of assay [2] is TNF-α production by RAW 264.7 cells. In words: Cytokine secretion (TNF-α) by immune cells on micropillar/microwell chip, 32-plex mouse cytokine array. The format is cell-based. The note with it: glycopolymers at 1250 μg/mL, LPS at 10 μg/mL, 24 hours, cell supernatant (FIG. 16A). Here is the method: (§8) FIGS. 9 and 16A-D are discussed in this example.
(§9) The micropillars on a micropillar chip were coated with 0.01% PMA-OD. Then 16.6 mM BaCl2/0.0033% PLL was printed on the micropillars using a microarray spotter.
(§10) An immune-cell suspension was prepared using RAW 264.7 cells, 0.75% alginate and 0.5 mg/mL Matrigel and then printed onto the coated micropillars. 60 nL spots of the immune-cell suspension were printed onto a micropillar chip with dried PLL-BaCl2 at a density of 3×10^6 cells/mL. After 2 minutes of alginate gelation and 24-hour incubation with a microwell chip containing 950 nL of cell growth media, the micropillar chip containing immune cells was sandwiched with a new microwell chip containing 950 nL of glycopolymers (polyacrylamide, N-glucosyl polymer, N-galactosyl polymer, N-mannosyl polymer, N-GlcNAc polymer, N-lactosyl polymer, N-α2,3 sialolactosyl polymer, and Nα2,6-sialolactosyl polymer) at 1250 μg/mL and LPS at 10 μg/mL, and incubated at 37° C. and 5% CO2 for 24 hours.
(§11) Separately, immune cells were cultured in 96-well plates in growth media and 10 μg/mL LPS for 24 hours as negative and positive controls for 2D monolayer culture.
(§12) The cell supernatants for all conditions were collected from the microwell chip and the 96-well plate, centrifuged, and analyzed for 32-plex mouse cytokine array measurements. […]

Assay [3] deals with IL-6 production by RAW 264.7 cells. In words: Cytokine secretion (IL-6) by immune cells on micropillar/microwell chip, 32-plex mouse cytokine array. The class given is cell-based. As to conditions: glycopolymers at 1250 μg/mL, LPS at 10 μg/mL, 24 hours, cell supernatant (FIG. 16B). The protocol:
as §8, §9, §10, §11, §12

The test system of assay [4] is IL-10 production by RAW 264.7 cells. In words: Cytokine secretion (IL-10) by immune cells on micropillar/microwell chip, 32-plex mouse cytokine array. The class given is cell-based. The note with it: glycopolymers at 1250 μg/mL, LPS at 10 μg/mL, 24 hours, cell supernatant (FIG. 16D). The protocol:
as §8, §9, §10, §11, §12

With lipopolysaccharide [LPS], the “expression level of CD40 marker” value in the assay on CD40 on RAW 264.7 cells is reported as “significantly enhanced”. Further, the “expression level of CD80 marker” value in the assay on CD80 on RAW 264.7 cells is listed as “enhanced”. Also, in assay [1], the “expression level of class II MHC marker” value is “significantly enhanced”. In addition, the TNF-α production entry in assay [2] is “significantly stimulated”. In addition, the IL-6 production result in assay [3] is given as “significantly stimulated”. Further, the IL-10 production entry in assay [4] is listed as “significantly stimulated”.
